Measurements published in patent publication US20240279220A1, “INDOLE COMPOUNDS AND METHODS OF USE” (Genzyme Corporation, priority 2021, published 2024).

System: NBD1/3D
Assay: Aggregation analysis using differential static light scattering (DSLS), NBD1 thermal stability
Type: binding, Human
Conditions: ΔTagg versus DMSO control; compound at 100 μM
Experimental: Purified recombinant NBD1 was produced using previously described methods (A. Schmidt, J. L. Mendoza, P. J. Thomas (2011) Biochemical and Biophysical Approaches to Probe CFTR Structure (365-376) M. D. Amaral, K. Kunzelmann (eds.), Cystic Fibrosis, Methods in Molecular Biology 741, Springer Science+Business Media). The effect of test compounds on thermal stability of NBD1 was evaluated by differential static light scattering (DSLS) using the Harbinger Stargazer-384 instrument (Epiphyte Three, Toronto, Canada).
Test compounds were dissolved and diluted to desired concentrations in 100% DMSO. The compounds or DMSO controls (100 nL) were stamped into wells of a […] low volume optical plate (Corning Inc., Corning, NY) using the Echo 555 acoustic liquid handler (Labcyte Inc., San Jose, CA).
NBD1 protein was diluted to 0.2 mg/ml in S200 buffer (50 mM Tris-HCl, 150 mM NaCl, 5 mM MgCl2, 2 mM ATP, 2 mM DTT, pH7.6) containing 1% glycerol. 10 uL of protein solution was aliquoted into the 384-well plate harboring the test compounds and 10 uL mineral oil was overlayed onto the protein solution, using the epMotion robotic liquid handler (Eppendorf North America, Hauppauge, NY). After placing into the Stargazer instrument, the plate was heated at 1° C. per minute to 70° C. Images were captured from 25° C. to 70° C. every 0.5° C. At the end of the experiment run, instrument software integrated image files and analyzed data automatically. A […] regression curve was generated for each well, representing the increase in light scattering over time. A temperature of aggregation (Tagg) was calculated based on the inflection point of the curve. To better compare data across experiments the average Tagg for DMSO control wells was calculated and subtracted from values for wells containing compounds to obtain a “ΔTagg” value. These ΔTagg values reflect stabilizing efficacy of the compounds.

Row | Compound | DSLS NBD1/3D Human Stability delta-T (° C.) @ 100 (μM)
1 | O=P(O)(O)OCCCc1cccc(Cc2cnc(-c3cc(Oc4c(F)cc5[nH]ccc5c4F)ccc3F)[nH]2)c1F [Example 269, 3-(3-((2-(5-((4,6-Difluoro-1H-indol-5-yl)oxy)-2-fluorophenyl)-1H-imidazol-5-yl)methyl)-2-fluorophenyl)propyl dihydrogen phosphate] | C (C: ≤5° C.)
2 | [2H]C([2H])([2H])C(C#N)(c1cc(F)cc(CCC(=O)O)c1)c1c[nH]c(-c2cc(Oc3c(F)c(F)c4[nH]ccc4c3F)ccc2F)n1 (single isomer, unassigned) [Example 66, 3-(3-(1-cyano-1-(2-(2-fluoro-5-((4,6,7-trifluoro-1H-indol-5-yl)oxy)phenyl)-1H-imidazol-4-yl)ethyl-2,2,2-d3)-5-fluorophenyl)propanoic acid] | B (B: 5-10° C.)
3 | Cc1c(Oc2ccc(F)c(-c3ncc(C4(c5cccc(CCC(=O)O)c5)CCOC(C)C4)[nH]3)c2)c(F)cc2[nH]ccc12 (single isomer, unassigned) [Example 151, 3-(3-(4-(2-(2-fluoro-5-((6-fluoro-4-methyl-1H-indol-5-yl)oxy)phenyl)-1H-imidazol-5-yl)-2-methyltetrahydro-2H-pyran-4-yl)phenyl)propanoic acid] | B (B: 5-10° C.)
4 | CC(O)(c1cccc(CCC(=O)O)c1)c1cnc(-c2cc(Oc3c(F)cc4[nH]ccc4c3F)ccc2F)[nH]1 (single isomer, unassigned) [Example 216A, 3-(3-(1-(2-(5-((4,6-difluoro-1H-indol-5-yl)oxy)-2-fluorophenyl)-1H-imidazol-5-yl)-1-hydroxyethyl)phenyl) propanoic acid] | B (B: 5-10° C.)
5 | Cc1c(Oc2ccc(F)c(-c3nc(Cc4cccc(CCC(=O)O)c4)n(C)n3)c2)c(F)cc2[nH]ccc12 [Example 241, 3-(3-((3-(2-Fluoro-5-((6-fluoro-4-methyl-1H-indol-5-yl)oxy)phenyl)-1-methyl-1H-1,2,4-triazol-5-yl)methyl)phenyl)propanoic acid] | B (B: 5-10° C.)
6 | CC(C#N)(c1cccc(CCC(=O)O)c1)c1cnc(-c2cc(Oc3c(F)c(F)c4[nH]ccc4c3F)ccc2F)[nH]1 (stereo not shown) [Example 54, 3-(3-(1-cyano-1-(2-(2-fluoro-5-((4,6,7-trifluoro-1H-indol-5-yl)oxy)phenyl)-1H-imidazol-5-yl)ethyl)phenyl)propanoic acid] | B (B: 5-10° C.)
7 | COP(=O)(Cc1cccc(Cn2ccc(-c3cccc(Oc4ccc5[nH]ccc5c4CO)c3)n2)c1)OC [Example 12, dimethyl (3-((3-(3-((4-(hydroxymethyl)-1H-indol-5-yl)oxy)phenyl)-1H-pyrazol-1-yl)methyl)benzyl)phosphonate] | C (C: ≤5° C.)
8 | CO[C@]1(C)C[C@@](c2cc(F)cc(CCC(=O)O)c2)(c2c[nH]c(-c3cc(Oc4c(F)cc5[nH]ccc5c4S(C)(=O)=O)ccc3F)n2)C1 [Example 72, 3-(3-Fluoro-5-((1r,3r)-1-(2-(2-fluoro-5-((6-fluoro-4-(methylsulfonyl)-1H-indol-5-yl)oxy)phenyl)-1H-imidazol-5-yl)-3-methoxy-3-methylcyclobutyl)phenyl)propanoic acid] | A (A: T ≥ 10° C.)
9 | O=C(O)CCc1cccc(C2(c3cnc(-c4cc(Oc5nc6cc[nH]c6cc5F)ccc4F)[nH]3)CC(F)(F)C2)c1 [Example 165, 3-(3-(3,3-difluoro-1-(2-(2-fluoro-5-((6-fluoro-1H-pyrrolo[3,2-b]pyridin-5-yl)oxy)phenyl)-1H-imidazol-5-yl)cyclobutyl)phenyl)propanoic acid] | B (B: 5-10° C.)
10 | CC(O)(c1cccc(CCC(=O)O)c1)c1cnc(-c2cc(Oc3c(F)cc4[nH]ccc4c3F)ccc2F)[nH]1 (stereo not shown) [Example 187, 3-(3-(1-(2-(5-((4,6-difluoro-1H-indol-5-yl)oxy)-2-fluorophenyl)-1H-imidazol-5-yl)-1-hydroxyethyl)phenyl) propanoic acid] | A (A: T ≥ 10° C.)
11 | Cc1c(Oc2cccc(-c3ccn(C(C)c4cccc(CCC(=O)O)c4)n3)c2)ccc2[nH]ccc12 (stereo not shown) [Example 2, 3-(3-(1-(3-(3-((4-methyl-1H-indol-5-yl)oxy)phenyl)-1H-pyrazol-1-yl)ethyl)phenyl)propanoic acid] | B (B: 5-10° C.)
12 | O=C(O)CCc1cccc(Cc2nnc(-c3cc(Oc4c(F)cc5[nH]ccc5c4Cl)ccc3F)[nH]2)c1 [Example 239, 3-(3-((5-(5-((4-chloro-6-fluoro-1H-indol-5-yl)oxy)-2-fluorophenyl)-4H-1,2,4-triazol-3-yl)methyl)phenyl) propanoic acid] | C (C: ≤5° C.)
13 | O=C(O)CCc1cccc(C2(c3cnc(-c4cc(Oc5c(F)cc6[nH]ccc6c5SC(F)(F)F)ccc4F)[nH]3)CCOCC2)c1 [Example 82, 3-(3-(4-(2-(2-Fluoro-5-((6-fluoro-4-((trifluoromethyl)thio)-1H-indol-5-yl)oxy)phenyl)-1H-imidazol-5-yl)tetrahydro-2H-pyran-4-yl)phenyl)propanoic acid] | B (B: 5-10° C.)
14 | O=C(O)CCc1cccc(C(O)c2cnc(-c3cccc(Oc4c(F)cc5[nH]ccc5c4-c4ccn[nH]4)c3)[nH]2)c1 (stereo not shown) [Example 267, 3-(3-((2-(3-((6-Fluoro-4-(1H-pyrazol-5-yl)-1H-indol-5-yl)oxy)phenyl)-1H-imidazol-5-yl)(hydroxy)methyl)phenyl)propanoic acid] | B (B: 5-10° C.)
15 | CCS(=O)(=O)c1c(Oc2ccc(F)c(-c3ncc(C(C)(O)c4cccc(CCC(=O)O)c4)[nH]3)c2)c(F)cc2[nH]ccc12 (stereo not shown) [Example 27, 3-(3-(1-(2-(5-((4-(ethylsulfonyl)-6-fluoro-1H-indol-5-yl)oxy)-2-fluorophenyl)-1H-imidazol-5-yl)-1-hydroxyethyl)phenyl)propanoic acid] | B (B: 5-10° C.)
16 | CC(C#N)(c1cccc(CCC(=O)O)c1)c1cnc(-c2cc(Oc3c(F)c(F)c4[nH]ccc4c3S(C)(=O)=O)ccc2F)[nH]1 (stereo not shown) [Example 49, 3-(3-(1-Cyano-1-(2-(5-((6,7-difluoro-4-(methylsulfonyl)-1H-indol-5-yl)oxy)-2-fluorophenyl)-1H-imidazol-5-yl)ethyl)phenyl)propanoic acid] | A (A: T ≥ 10° C.)
17 | CC(=O)NCc1c(Oc2cccc(-c3ncc(C(O)c4cccc(CCC(=O)O)c4)[nH]3)c2)ccc2[nH]ccc12 (stereo not shown) [Example 262, 3-(3-((2-(3-((4-(Acetamidomethyl)-1H-indol-5-yl)oxy)phenyl)-1H-imidazol-5-yl)(hydroxy)methyl)phenyl)propanoic acid] | A (A: T ≥ 10° C.)
18 | Cc1c(Oc2ccc(F)c(-c3nnc(Cc4cccc(C5CC(C(=O)O)C5)c4)[nH]3)c2)c(F)cc2[nH]ccc12 (stereo not shown) [Example 247, 3-(3-((5-(2-Fluoro-5-((6-fluoro-4-methyl-1H-indol-5-yl)oxy)phenyl)-4H-1,2,4-triazol-3-yl)methyl)phenyl)cyclobutane-1-carboxylic acid] | B (B: 5-10° C.)
19 | C=C(c1cccc(CCC(=O)O)c1)c1cnc(-c2cc(Oc3c(F)cc4[nH]ccc4c3C)ccc2F)[nH]1 [Example 214, 3-(3-(1-(2-(2-Fluoro-5-((6-fluoro-4-methyl-1H-indol-5-yl)oxy)phenyl)-1H-imidazol-5-yl)vinyl)phenyl)propanoic acid] | C (C: ≤5° C.)
